Results reported in US12240811B2, “N-heterocyclic five-membered ring-containing capsid protein assembly inhibitor, pharmaceutical composition and uses thereof” (CHIA TAI TIANQING PHARMACEUTICAL GROUP CO., LTD., priority 2019, dated 2025).

What was measured:
[1] = Stability of liver microsomes in vitro, human; assay type: in vitro ADME
Experimental: (§1) 300 μL of a final incubation system contains 30 μL of liver microsomes (protein concentration: 0.15 mg/mL, Corning), 30 μL NADPH+MgCl2, 3 μL substrate (formulated with acetonitrile), and 237 μL PBS buffer. Duplicate incubation systems of 0.3 mL each were formulated for each species. A total volume of 270 μL of a uniformly mixed solution of the substrate and the enzyme was formulated in each tube, the solution and NADPH were pre-incubated at 37° C. for 5 minutes, respectively. Then 30 μL of the mixed solution of NADPH+MgCl2 was added for reaction. 50 μL of the reaction solution was taken out at 0, 10, 30, and 60 mins, and the reaction was terminated with 300 μL of ice acetonitrile containing an internal standard.
(§2) Sample pre-treatment: To 50 μL of the incubated sample was added 300 μL of ice acetonitrile containing diazepam as an internal standard and then precipitated. After vortexing for 5 minutes, the sample was centrifugated (12000 rpm, 4° C.) for 10 minutes. 75 μL of the supernatant was pipetted into a 96-well plate, and then diluted with 75 μL ultrapure water and mixed uniformly. 0.5 μL of the resulting solution was injected and analyzed by LC-MS/MS.

[2] = Plasma protein binding assay, mouse plasma; assay type: in vitro ADME
Experimental: (§3) Formulation of plasma sample: 495 μL of blank plasmas of the corresponding species (mouse, rat, dog, monkey, and human) were drawn respectively, and thereto was added 5 μL of the corresponding test compound solution or positive control to give plasma sample solutions having a plasma drug concentration of the compound of 1 μM, and 10 μM, respectively (formulated with acetonitrile).
(§4) The pre-treated dialysis membrane was placed in a high-throughput equilibrium dialysis device, and 100 μL of the plasma sample solution and PBS buffer solution were drawn and added respectively to both sides of the dialysis membrane (sample side and buffer side) (n=3). After the equilibration device was sealed with a film, it was incubated at 37° C. overnight (100 rpm). After dialysis equilibrium was reached, 50 μL samples were drawn from the sample side and the buffer side, respectively, and the reaction was terminated by adding ice acetonitrile containing an internal standard.
(§5) Sample pre-treatment: To 50 μL of the plasma-side sample was added 450 μL of ice acetonitrile containing an internal standard, and then precipitated. After vortexing for 5 minutes, the sample was centrifugated (12000 rpm, 4° C.) for 10 minutes. 75 μL of the supernatant was pipetted, and 75 μL of ultrapure water was added thereto for dilution and mixed uniformly. 1 μL of the resulting solution was injected for analysis. […]

HBV DNA in HepAD38 cells = experiment: In vitro cell HBV DNA inhibitory activity in HepAD38 cells; assay type: cell-based; conditions: Hepatitis B virus, 144 h, 6 days treatment, intracellular capsid HBV DNA by qPCR, read-out: EC50, anti-HBV activity in HepAD38 cells
Experimental: (§6) A bottle of HepG2.2.15 (Wuhan Institute of Virology) or HepAD38 cells in good exponential growth state was taken, washed once by adding 5 mL PBS, and then thereto was added 3 mL trypsin. After digesting at room temperature for 5 min, 2 mL trypsin was discarded, and then the sample was placed in a cell culture incubator and digested for 10 min. The cells were taken out and observed under a microscope (whether the cells were individually round and there was no adhesion between the cells). 10 mL complete medium was added to terminate the digestion. After pipetting into a single cell suspension, 10 μL of the cell suspension was taken out for cell counting with a cell counter, and then diluted with a complete medium and adjusted to a cell density of 1*10^5 cells/mL. […]
(§7) Compounds dissolved in DMSO were subjected to two-fold gradient dilution (10 concentrations in total) with complete medium. […] After lysing at room temperature for 10 min, DNA was extracted, and HBV DNA in the intracellular viral capsid was measured by real-time fluorescence quantitative PCR. The inhibition rate was calculated based on the Ct value, and the EC50 value was calculated by the four-parameter method.

[3] = tested on: HBV DNA in HepG2.2.15 cells; experiment: In vitro cell HBV DNA inhibitory activity in HepG2.2.15 cells; assay type: cell-based; conditions: Hepatitis B virus, 144 h, 6 days treatment, intracellular capsid HBV DNA by qPCR, read-out: EC50, anti-HBV activity in HepG2.2.15 cells
Experimental: as §6, §7

[4] = Stability of liver microsomes in vitro, mouse; assay type: in vitro ADME
Experimental: as §1, §2

CYP 2B6 = CYP 2B6 (Homo sapiens (Human), UniProt P20813); experiment: CYP450 enzyme inhibition study, CYP 2B6; assay type: in vitro ADME; conditions: human liver microsomes; read-out: Subtypes IC50 2B6
Chain of CYP 2B6 (P20813 whole entry): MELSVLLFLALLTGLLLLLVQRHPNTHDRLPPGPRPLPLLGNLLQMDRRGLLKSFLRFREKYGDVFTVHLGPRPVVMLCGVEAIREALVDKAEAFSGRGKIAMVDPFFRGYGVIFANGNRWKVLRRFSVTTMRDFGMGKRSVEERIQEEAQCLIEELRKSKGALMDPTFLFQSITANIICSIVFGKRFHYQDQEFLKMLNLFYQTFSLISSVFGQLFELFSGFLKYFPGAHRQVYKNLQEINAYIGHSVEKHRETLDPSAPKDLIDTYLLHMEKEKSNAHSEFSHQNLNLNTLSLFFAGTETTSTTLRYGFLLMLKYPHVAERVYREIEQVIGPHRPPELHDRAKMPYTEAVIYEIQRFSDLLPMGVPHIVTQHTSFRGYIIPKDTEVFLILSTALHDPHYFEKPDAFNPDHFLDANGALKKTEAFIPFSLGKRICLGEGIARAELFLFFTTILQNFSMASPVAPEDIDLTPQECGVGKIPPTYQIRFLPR
Experimental: 500 μL of a final incubation system contains 50 μL of human liver microsomes (protein concentration: 0.2 mg/mL, Corning), 1 μL of mixed CYP450 specific substrates (CYP1A2, CYP 2B6, CYP 2C9, CYP2C19, CYP 2D6, and CYP 3A4), 398 μL PBS buffer (pH7.4), 1 μL specific positive inhibitor (positive control group) or the test compound (formulated with acetonitrile), and 50 μL NADPH+MgCl2. Duplicate incubation systems of 0.5 mL each were formulated for each CYP450 subtype. A total volume of 450 μL of a uniformly mixed solution of the substrate and the enzyme was formulated in each tube, and the solution and NADPH were pre-incubated at 37° C. for 5 minutes, respectively. Then 50 μL of the mixed solution of NADPH+MgCl2 was added for reaction. 50 μL of the reaction solution was taken out at 30 minutes, and the reaction was terminated with 300 μL of ice acetonitrile containing an internal standard. In addition, two control groups of 500 μL each without NADPH were prepared in parallel as a negative control group.
as §5, with “incubated” for “plasma-side”, “300” for “450”, “uniformly.” for “uniformly. 1 μL of the resulting solution was injected for analysis.”

[5] = Plasma protein binding assay, rat plasma; assay type: in vitro ADME
Experimental: as §3, §4, §5

[6] = Plasma protein binding assay, monkey plasma; assay type: in vitro ADME
Experimental: as §3, §4, §5

Cc1[nH]c(C(=O)C(=O)N[C@@H](C)C(F)(F)F)c(C)c1C(=O)Nc1ccc(F)c(C#N)c1 [Example 1, (S)—N-(3-cyano-4-fluorophenyl)-2,4-dimethyl-5-(2-oxo-2-((1,1,1-trifluoroprop-2-yl)amino)acetyl)-1H-pyrrole-3-carboxamide]
Remaining (%) of human liver microsomes at 60 min [1]: 99% | Binding rate (%) Mouse ([2]; 1 μM): 85.4% | Binding rate (%) Mouse ([2]; 10 μM): 85.5% | EC50 (HBV DNA in HepAD38 cells): 24 nM | EC50 [3]: 17.4 nM | Remaining (%) of mouse liver microsomes at 60 min [4]: 96% | IC50 (CYP 2B6): > 200000 nM | Binding rate (%) Rat ([5]; 1 μM): 95.0% | Binding rate (%) Rat ([5]; 10 μM): 95.3% | Binding rate (%) Monkey ([6]; 1 μM): 90.2% | Binding rate (%) Monkey ([6]; 10 μM): 90.5%
